Assay results: the supplement of paper PMC6045584
± gives the standard deviation of the averaged measurements.

How the values were obtained:
[1] = compound: NS(=O)(=O)OC[C@@H]1C[C@@H](n2ccc3c(N[C@H]4CCc5ccccc54)ncnc32)C[C@@H]1O [MLN-4924]; test: surviving fraction relative to DMSO-only wells; higher = less growth inhibition; conditions: exposure time: 5 days
Outline: (§1)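 In 384-well plates, 250–500 log-phase tumour cells per well were given 24 hours before five days of continuous exposure to inhibitors at 0.5, 1, 5, 10, 50, 100, 500 and 1000 nM. Surviving fraction is luminescence from CellTiter-Glo, normalised to the median of wells containing DMSO alone. Reading took place after 10 minutes at room temperature.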

[2] = compound: O=C(c1cc(Cc2n[nH]c(=O)c3ccccc23)ccc1F)N1CCN(C(=O)C2CC2)CC1 [OLAPARIB]; test: as above; conditions: exposure time: 5 days
Outline: as §1

Row | Test System | surviving fraction ([1]; 0.5 nM) | surviving fraction ([1]; 1 nM) | surviving fraction ([1]; 5 nM) | surviving fraction ([1]; 10 nM) | surviving fraction ([1]; 50 nM) | surviving fraction ([1]; 100 nM) | surviving fraction ([1]; 500 nM) | surviving fraction ([1]; 1000 nM) | surviving fraction ([2]; 0.5 nM) | surviving fraction ([2]; 1 nM) | surviving fraction ([2]; 5 nM) | surviving fraction ([2]; 10 nM) | surviving fraction ([2]; 50 nM) | surviving fraction ([2]; 100 nM) | surviving fraction ([2]; 500 nM) | surviving fraction ([2]; 1000 nM)
1 | SCC36 HEADNECK | 1.06 ± 0.18 | 0.955 ± 0.11 | 1.13 ± 0.061 | 1.14 ± 0.09 | 0.544 ± 0.12 | 0.259 ± 0.029 | 0.0483 ± 0.0085 | 0.047 ± 0.002 | 1 ± 0.045 | 0.993 ± 0.12 | 1.06 ± 0.018 | 0.948 ± 0.12 | 0.837 ± 0.1 | 0.697 ± 0.027 | 0.705 ± 0.066 | 0.596 ± 0.066
2 | SCC47 HEADNECK | 1.12 ± 0.028 | 1.1 ± 0.11 | 1.06 ± 0.016 | 1.07 ± 0.022 | 0.717 ± 0.053 | 0.51 ± 0.05 | 0.307 ± 0.025 | 0.263 ± 0.024 | 1.1 ± 0.09 | 0.994 ± 0.062 | 1.14 ± 0.042 | 1.07 ± 0.086 | 1.08 ± 0.098 | 0.989 ± 0.079 | 0.977 ± 0.043 | 1.03 ± 0.11
3 | SCC90 HEADNECK | 1.09 ± 0.27 | 1.04 ± 0.042 | 1.04 ± 0.099 | 0.541 ± 0.0053 | 0.212 ± 0.033 | 0.167 ± 0.01 | 0.144 ± 0.018 | 0.16 ± 0.032 | 1.07 ± 0.066 | 1.04 ± 0.093 | 1.06 ± 0.062 | 1.1 ± 0.063 | 0.994 ± 0.037 | 0.942 ± 0.14 | 0.968 ± 0.087 | 0.931 ± 0.091
4 | SG27 HEADNECK | 1.07 ± 0.041 | 1.1 ± 0.12 | 1.11 ± 0.055 | 1.16 ± 0.13 | 0.991 ± 0.17 | 0.823 ± 0.076 | 0.618 ± 0.098 | 0.322 ± 0.055 | 1 ± 0.049 | 1.05 ± 0.14 | 0.969 ± 0.093 | 0.991 ± 0.1 | 0.916 ± 0.074 | 0.995 ± 0.092 | 0.981 ± 0.22 | 1.02 ± 0.11
5 | SG28 HEADNECK | 1.16 ± 0.16 | 1.16 ± 0.03 | 1.153 ± 0.0099 | 1.1 ± 0.032 | 0.726 ± 0.076 | 0.614 ± 0.1 | 0.296 ± 0.024 | 0.24 ± 0.0099 | 1.12 ± 0.13 | 0.982 ± 0.12 | 1.02 ± 0.09 | 0.952 ± 0.088 | 0.914 ± 0.13 | 0.887 ± 0.13 | 0.928 ± 0.024 | 0.926 ± 0.065
6 | SG31 HEADNECK | 1.21 ± 0.15 | 1.37 ± 0.22 | 1.06 ± 0.24 | 1.12 ± 0.14 | 0.671 ± 0.12 | 0.553 ± 0.062 | 0.247 ± 0.0062 | 0.198 ± 0.034 | 1.17 ± 0.27 | 1.09 ± 0.061 | 1.02 ± 0.12 | 0.985 ± 0.16 | 0.932 ± 0.18 | 0.908 ± 0.13 | 0.946 ± 0.073 | 0.962 ± 0.073
7 | SG32 HEADNECK | 1.17 ± 0.11 | 1.05 ± 0.14 | 1.36 ± 0.08 | 1.28 ± 0.16 | 1.04 ± 0.044 | 0.797 ± 0.051 | 0.277 ± 0.023 | 0.186 ± 0.018 | 1.23 ± 0.41 | 1.43 ± 0.2 | 1.23 ± 0.4 | 1.24 ± 0.15 | 1.03 ± 0.054 | 1.05 ± 0.22 | 0.77 ± 0.042 | 0.795 ± 0.081
8 | SG43 HEADNECK | 1.15 ± 0.29 | 1 ± 0.32 | 1.02 ± 0.26 | 1.15 ± 0.18 | 0.885 ± 0.19 | 1.11 ± 0.15 | 0.463 ± 0.094 | 0.223 ± 0.087 | 1.18 ± 0.24 | 0.979 ± 0.16 | 0.835 ± 0.043 | 0.882 ± 0.095 | 1.19 ± 0.025 | 1.01 ± 0.059 | 0.982 ± 0.11 | 0.935 ± 0.042
9 | SIHA CERVIX | 1.04 ± 0.11 | 1.07 ± 0.057 | 1.16 ± 0.099 | 1.22 ± 0.092 | 0.81 ± 0.086 | 0.611 ± 0.077 | 0.377 ± 0.021 | 0.312 ± 0.026 | 0.988 ± 0.022 | 1.07 ± 0.13 | 1.02 ± 0.073 | 1.03 ± 0.044 | 0.967 ± 0.053 | 1.04 ± 0.061 | 0.91 ± 0.067 | 0.886 ± 0.061
10 | SJSA1 BONE | 0.247 ± 0.017 | 1.7 ± 0.13 | 1.68 ± 0.098 | 1.57 ± 0.046 | 1.64 ± 0.17 | 1.8 ± 0.063 | 1.62 ± 0.033 | 1.73 ± 0.071 | 1 ± 0.025 | 1.01 ± 0.045 | 1.03 ± 0.061 | 1.02 ± 0.066 | 1.01 ± 0.083 | 0.963 ± 0.024 | 0.931 ± 0.051 | 0.876 ± 0.039
11 | SKBR3 BREAST | 1.01 ± 0.067 | 1.06 ± 0.12 | 1.11 ± 0.083 | 1.01 ± 0.062 | 0.187 ± 0.015 | 0.14 ± 0.01 | 0.159 ± 0.017 | 0.175 ± 0.011 | 1.02 ± 0.1 | 1.05 ± 0.15 | 0.939 ± 0.12 | 1 ± 0.21 | 0.922 ± 0.14 | 0.935 ± 0.093 | 0.79 ± 0.13 | 0.813 ± 0.072
12 | SNU475 LIVER | 0.976 ± 0.031 | 1.04 ± 0.031 | 1.04 ± 0.023 | 1.04 ± 0.062 | 1.12 ± 0.059 | 1.08 ± 0.046 | 0.663 ± 0.036 | 0.53 ± 0.012 | 1 ± 0.079 | 0.957 ± 0.032 | 1 ± 0.039 | 0.994 ± 0.07 | 0.893 ± 0.059 | 0.8737 ± 0.0067 | 0.918 ± 0.013 | 0.838 ± 0.016
13 | SUM44 BREAST | 1.22 ± 0.37 | 1.27 ± 0.4 | 1.27 ± 0.33 | 1.23 ± 0.36 | 0.785 ± 0.24 | 0.63 ± 0.22 | 0.486 ± 0.13 | 0.495 ± 0.17 | 0.903 ± 0.012 | 0.911 ± 0.059 | 0.924 ± 0.083 | 0.909 ± 0.071 | 0.97 ± 0.068 | 0.958 ± 0.063 | 0.894 ± 0.066 | 0.861 ± 0.022
14 | SUM149 BREAST | 1.08 ± 0.13 | 1.01 ± 0.16 | 1.09 ± 0.13 | 1.056 ± 0.0092 | 0.86 ± 0.073 | 0.555 ± 0.046 | 0.0803 ± 0.017 | 0.066 ± 0.003 | 0.951 ± 0.21 | 0.911 ± 0.082 | 0.927 ± 0.11 | 0.84 ± 0.01 | 0.722 ± 0.054 | 0.624 ± 0.059 | 0.511 ± 0.084 | 0.336 ± 0.051
15 | SUM149.B1*.S BREAST | 1.13 ± 0.076 | 1.09 ± 0.063 | 1.09 ± 0.021 | 1.08 ± 0.031 | 1.002 ± 0.0051 | 0.675 ± 0.057 | 0.107 ± 0.0071 | 0.0892 ± 0.0075 | 1.092 ± 0.0038 | 1.09 ± 0.094 | 1.08 ± 0.031 | 1.05 ± 0.022 | 1.03 ± 0.015 | 0.962 ± 0.035 | 1.04 ± 0.011 | 0.911 ± 0.04
16 | SUM159 BREAST | 1.11 ± 0.039 | 1.07 ± 0.043 | 1.08 ± 0.023 | 1.07 ± 0.017 | 1.05 ± 0.018 | 1.01 ± 0.012 | 0.75 ± 0.022 | 0.433 ± 0.02 | 1.12 ± 0.075 | 1.05 ± 0.066 | 1.084 ± 0.01 | 1.06 ± 0.016 | 1.05 ± 0.051 | 0.948 ± 0.24 | 1.02 ± 0.079 | 0.993 ± 0.091
